Measured values: ChEMBL document CHEMBL5696442, “Discovery of type II inhibitors of TGFβ-activated kinase 1 (TAK1) and mitogen-activated protein kinase kinase kinase kinase 2 (MAP4K2)” (J Med Chem, 2015)
Active and inactive are the calls of the source. The calls are words filed in the database; no cut-off is given here.

Experiments:
[1] = target: Serine/threonine-protein kinase WNK1 (Homo sapiens) (UniProt Q9H4A3); assay: Inhibition of Wnk1 Lys2 labeling site in human Huh-7 cells at 1 uM by KiNativ Profiling analysis relative to control; type: cell-based
[2] = Inhibition of KHS2 Lys1 labeling site in human Huh-7 cell lysate at 1 uM by KiNativ Profiling analysis relative to control; conditions: condition cancer
[3] = target: Serine/threonine-protein kinase MARK2 (Homo sapiens) (UniProt Q7KZI7); assay: Inhibition of MARK2 Lys2 labeling site harbouring DLKAENLLLDADMNIK in human Huh-7 cell lysate at 1 uM by KiNativ Profiling analysis relative to control; type: subcellular
[4] = Inhibition of KHS1 Lys2 labeling site harbouring DIKGANILLTDHGDVK in human Huh-7 cells at 1 uM by KiNativ Profiling analysis relative to control; conditions: condition cancer
[5] = target: Cyclin-dependent kinase 2 (Homo sapiens) (UniProt P24941); assay: Inhibition of CDK2 Lys2 labeling site harbouring DLKPQNLLINTEGAIK in human Huh-7 cells at 1 uM by KiNativ Profiling analysis relative to control; type: cell-based
[6] = target: Ribosomal protein S6 kinase alpha-3 (Homo sapiens) (UniProt P51812); assay: Inhibition of RSK2 domain 1 Lys2 labeling site harbouring DLKPENILLDEEGHIKLTDFGLSK in human Huh-7 cell lysate at 1 uM by KiNativ Profiling analysis relative to control; type: subcellular
[7] = target: Serine/threonine-protein kinase BRSK2 (Homo sapiens) (UniProt Q8IWQ3); assay: Inhibition of BRSK2 (unknown origin) at 10 uM by Ambit Kinomescan binding assay
[8] = target: Tyrosine-protein kinase ABL (Homo sapiens) (UniProt P00519+P42684); assay: Inhibition of ABL1/2 ACT labeling site in human Huh-7 cells at 1 uM by KiNativ Profiling analysis relative to control; type: cell-based
[9] = target: Protein kinase C epsilon type (Homo sapiens) (UniProt Q02156); assay: Inhibition of PRKCE (unknown origin) at 10 uM by Ambit Kinomescan binding assay relative to control
[10] = target: T1, Phosphatidylinositol 4,5-bisphosphate 3-kinase catalytic subunit delta isoform (Homo sapiens) (UniProt O00329); assay: Inhibition of PIK3CD (unknown origin) at 10 uM by Ambit Kinomescan binding assay
T1 sequence (whole entry): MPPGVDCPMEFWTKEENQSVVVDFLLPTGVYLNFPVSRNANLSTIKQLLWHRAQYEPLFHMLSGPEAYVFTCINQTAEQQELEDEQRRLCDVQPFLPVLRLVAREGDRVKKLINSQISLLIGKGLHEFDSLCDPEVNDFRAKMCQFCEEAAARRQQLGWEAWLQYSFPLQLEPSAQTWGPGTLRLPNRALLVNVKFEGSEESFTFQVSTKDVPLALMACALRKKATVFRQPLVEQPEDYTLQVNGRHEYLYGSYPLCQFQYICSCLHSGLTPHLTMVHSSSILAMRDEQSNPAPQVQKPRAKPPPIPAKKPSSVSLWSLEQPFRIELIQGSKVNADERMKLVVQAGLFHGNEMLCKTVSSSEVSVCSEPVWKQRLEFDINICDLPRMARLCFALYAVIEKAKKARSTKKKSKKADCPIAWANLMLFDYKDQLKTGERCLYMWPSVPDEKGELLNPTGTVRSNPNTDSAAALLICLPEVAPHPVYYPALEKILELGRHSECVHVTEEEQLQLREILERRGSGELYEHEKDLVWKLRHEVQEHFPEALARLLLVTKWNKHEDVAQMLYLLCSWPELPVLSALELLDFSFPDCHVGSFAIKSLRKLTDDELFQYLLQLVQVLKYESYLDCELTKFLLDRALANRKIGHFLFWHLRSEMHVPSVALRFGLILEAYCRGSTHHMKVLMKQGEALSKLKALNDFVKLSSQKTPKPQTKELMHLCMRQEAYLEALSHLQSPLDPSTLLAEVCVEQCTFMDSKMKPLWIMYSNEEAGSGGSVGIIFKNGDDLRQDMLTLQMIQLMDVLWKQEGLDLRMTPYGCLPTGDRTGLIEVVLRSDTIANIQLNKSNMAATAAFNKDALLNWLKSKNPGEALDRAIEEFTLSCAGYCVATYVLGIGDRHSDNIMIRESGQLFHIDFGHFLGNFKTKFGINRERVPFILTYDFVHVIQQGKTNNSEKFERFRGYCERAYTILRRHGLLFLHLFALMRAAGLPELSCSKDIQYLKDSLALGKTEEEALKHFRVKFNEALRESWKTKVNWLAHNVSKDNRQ

[11] = target: Ribosomal protein S6 kinase alpha-6 (Homo sapiens) (UniProt Q9UK32); assay: Inhibition of N-terminal RPS6KA6 kinase domain 1 (unknown origin) at 10 uM by Ambit Kinomescan binding assay
[12] = target: Cyclin-dependent kinase 20 (Homo sapiens) (UniProt Q8IZL9); assay: Inhibition of CCRK Lys2 labeling site in human A-375 cells at 0.5 uM by KiNativ Profiling analysis relative to control; type: cell-based
[13] = target: Tyrosine-protein kinase Fer (Homo sapiens, UniProt P16591); assay: Inhibition of FER (unknown origin) at 1 uM by Ambit Kinomescan binding assay relative to control; values are per cent of control
[14] = system: Mast/stem cell growth factor receptor Kit (Homo sapiens), P10721 [V559D]; assay: Inhibition of KIT V559D mutant (unknown origin) at 1 uM by Ambit Kinomescan binding assay relative to control; values are per cent of control
[15] = target: Protein kinase C delta type (Homo sapiens) (UniProt Q05655); assay: Inhibition of PRKCD (unknown origin) at 1 uM by Ambit Kinomescan binding assay relative to control; values are per cent of control
[16] = target: T2, Serine/threonine-protein kinase Sgk3 (Homo sapiens) (UniProt Q96BR1); assay: Inhibition of SGK3 Lys1 labeling site in human A-375 cells at 5 uM by KiNativ Profiling analysis relative to control; type: cell-based
T2 sequence (whole entry): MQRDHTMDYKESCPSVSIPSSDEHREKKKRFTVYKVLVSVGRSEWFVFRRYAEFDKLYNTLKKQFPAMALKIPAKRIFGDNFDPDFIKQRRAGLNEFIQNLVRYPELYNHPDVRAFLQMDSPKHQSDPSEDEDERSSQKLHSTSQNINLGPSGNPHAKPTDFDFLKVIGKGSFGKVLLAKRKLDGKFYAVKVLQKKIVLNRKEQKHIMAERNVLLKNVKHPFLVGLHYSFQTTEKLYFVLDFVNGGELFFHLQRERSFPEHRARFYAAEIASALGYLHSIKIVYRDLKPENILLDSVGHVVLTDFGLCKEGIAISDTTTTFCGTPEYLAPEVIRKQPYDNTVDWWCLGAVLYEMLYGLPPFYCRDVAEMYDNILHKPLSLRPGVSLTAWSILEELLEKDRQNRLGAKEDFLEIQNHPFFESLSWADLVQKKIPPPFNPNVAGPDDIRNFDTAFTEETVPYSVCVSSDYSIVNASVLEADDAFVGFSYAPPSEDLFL

Mast/stem cell growth factor receptor Kit (Homo sapiens), P10721 [V559D], sequence (P10721 whole entry V559D): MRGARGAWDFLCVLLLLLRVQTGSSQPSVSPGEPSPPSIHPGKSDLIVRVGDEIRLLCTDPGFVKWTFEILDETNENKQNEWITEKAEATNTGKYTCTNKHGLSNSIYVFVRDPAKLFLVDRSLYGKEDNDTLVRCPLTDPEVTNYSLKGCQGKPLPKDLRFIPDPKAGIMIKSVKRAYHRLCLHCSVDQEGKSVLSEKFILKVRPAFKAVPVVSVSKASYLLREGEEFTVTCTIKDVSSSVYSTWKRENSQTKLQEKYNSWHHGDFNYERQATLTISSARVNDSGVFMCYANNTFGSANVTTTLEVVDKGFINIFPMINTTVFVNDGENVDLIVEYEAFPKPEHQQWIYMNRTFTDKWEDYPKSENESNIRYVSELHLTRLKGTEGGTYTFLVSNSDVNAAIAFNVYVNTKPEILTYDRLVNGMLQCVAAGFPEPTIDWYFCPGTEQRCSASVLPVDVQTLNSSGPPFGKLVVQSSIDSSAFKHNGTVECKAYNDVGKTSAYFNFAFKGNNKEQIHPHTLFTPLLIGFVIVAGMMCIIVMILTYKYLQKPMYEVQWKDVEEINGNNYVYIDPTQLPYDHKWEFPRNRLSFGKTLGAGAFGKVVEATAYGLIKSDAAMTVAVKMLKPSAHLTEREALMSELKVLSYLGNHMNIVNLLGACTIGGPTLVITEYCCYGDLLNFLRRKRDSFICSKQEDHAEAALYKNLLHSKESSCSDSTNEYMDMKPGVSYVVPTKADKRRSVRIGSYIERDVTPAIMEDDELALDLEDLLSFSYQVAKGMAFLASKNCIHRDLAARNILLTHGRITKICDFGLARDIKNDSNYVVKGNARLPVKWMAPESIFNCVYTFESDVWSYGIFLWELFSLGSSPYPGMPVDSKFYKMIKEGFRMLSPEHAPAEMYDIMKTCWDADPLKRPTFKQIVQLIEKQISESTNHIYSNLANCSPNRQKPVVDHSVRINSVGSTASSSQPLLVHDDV
Serine/threonine-protein kinase MARK2 (Homo sapiens), sequence (Q7KZI7 whole entry): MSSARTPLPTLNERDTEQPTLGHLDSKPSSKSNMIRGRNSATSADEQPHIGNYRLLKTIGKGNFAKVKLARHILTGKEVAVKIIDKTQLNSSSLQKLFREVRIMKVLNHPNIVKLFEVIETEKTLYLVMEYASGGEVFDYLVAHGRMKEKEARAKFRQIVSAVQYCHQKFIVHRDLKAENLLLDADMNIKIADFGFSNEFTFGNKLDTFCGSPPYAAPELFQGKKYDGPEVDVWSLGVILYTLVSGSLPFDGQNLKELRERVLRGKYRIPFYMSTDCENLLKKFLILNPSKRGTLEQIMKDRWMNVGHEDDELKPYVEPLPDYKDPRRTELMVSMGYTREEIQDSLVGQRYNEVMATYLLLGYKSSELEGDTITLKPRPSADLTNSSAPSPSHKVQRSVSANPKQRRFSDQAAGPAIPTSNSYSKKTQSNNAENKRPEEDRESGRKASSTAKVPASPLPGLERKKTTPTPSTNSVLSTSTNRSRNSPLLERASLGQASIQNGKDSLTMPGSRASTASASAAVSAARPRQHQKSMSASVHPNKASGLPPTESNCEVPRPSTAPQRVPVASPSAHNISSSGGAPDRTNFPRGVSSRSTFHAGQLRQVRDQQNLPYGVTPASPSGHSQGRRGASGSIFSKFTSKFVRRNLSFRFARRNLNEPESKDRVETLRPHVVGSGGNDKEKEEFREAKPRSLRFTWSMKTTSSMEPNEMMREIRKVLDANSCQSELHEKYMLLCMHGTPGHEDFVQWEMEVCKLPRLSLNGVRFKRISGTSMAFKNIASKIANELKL
Tyrosine-protein kinase Fer, sequence (P16591 whole entry, looked up): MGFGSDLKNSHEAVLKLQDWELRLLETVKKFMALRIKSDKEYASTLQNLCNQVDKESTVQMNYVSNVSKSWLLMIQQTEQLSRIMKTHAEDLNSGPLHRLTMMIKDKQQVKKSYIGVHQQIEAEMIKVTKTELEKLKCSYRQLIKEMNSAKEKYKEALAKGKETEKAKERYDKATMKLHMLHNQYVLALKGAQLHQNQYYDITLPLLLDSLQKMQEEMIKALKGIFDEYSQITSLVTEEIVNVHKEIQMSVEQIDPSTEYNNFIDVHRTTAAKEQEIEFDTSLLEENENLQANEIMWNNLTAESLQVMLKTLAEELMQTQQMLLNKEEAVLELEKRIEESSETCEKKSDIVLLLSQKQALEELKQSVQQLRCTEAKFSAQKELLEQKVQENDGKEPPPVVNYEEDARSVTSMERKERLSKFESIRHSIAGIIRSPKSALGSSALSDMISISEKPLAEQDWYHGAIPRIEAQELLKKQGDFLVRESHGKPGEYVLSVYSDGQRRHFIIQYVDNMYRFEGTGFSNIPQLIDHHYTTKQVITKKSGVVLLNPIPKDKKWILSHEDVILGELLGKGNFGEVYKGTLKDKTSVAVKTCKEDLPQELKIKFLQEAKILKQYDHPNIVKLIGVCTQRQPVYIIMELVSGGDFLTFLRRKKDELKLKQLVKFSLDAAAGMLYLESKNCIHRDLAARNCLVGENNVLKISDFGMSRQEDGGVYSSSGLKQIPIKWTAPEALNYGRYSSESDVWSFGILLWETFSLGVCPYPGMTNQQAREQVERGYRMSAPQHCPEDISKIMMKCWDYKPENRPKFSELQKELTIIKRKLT
Ribosomal protein S6 kinase alpha-3 (Homo sapiens), sequence (P51812 whole entry, the tested form may be a part): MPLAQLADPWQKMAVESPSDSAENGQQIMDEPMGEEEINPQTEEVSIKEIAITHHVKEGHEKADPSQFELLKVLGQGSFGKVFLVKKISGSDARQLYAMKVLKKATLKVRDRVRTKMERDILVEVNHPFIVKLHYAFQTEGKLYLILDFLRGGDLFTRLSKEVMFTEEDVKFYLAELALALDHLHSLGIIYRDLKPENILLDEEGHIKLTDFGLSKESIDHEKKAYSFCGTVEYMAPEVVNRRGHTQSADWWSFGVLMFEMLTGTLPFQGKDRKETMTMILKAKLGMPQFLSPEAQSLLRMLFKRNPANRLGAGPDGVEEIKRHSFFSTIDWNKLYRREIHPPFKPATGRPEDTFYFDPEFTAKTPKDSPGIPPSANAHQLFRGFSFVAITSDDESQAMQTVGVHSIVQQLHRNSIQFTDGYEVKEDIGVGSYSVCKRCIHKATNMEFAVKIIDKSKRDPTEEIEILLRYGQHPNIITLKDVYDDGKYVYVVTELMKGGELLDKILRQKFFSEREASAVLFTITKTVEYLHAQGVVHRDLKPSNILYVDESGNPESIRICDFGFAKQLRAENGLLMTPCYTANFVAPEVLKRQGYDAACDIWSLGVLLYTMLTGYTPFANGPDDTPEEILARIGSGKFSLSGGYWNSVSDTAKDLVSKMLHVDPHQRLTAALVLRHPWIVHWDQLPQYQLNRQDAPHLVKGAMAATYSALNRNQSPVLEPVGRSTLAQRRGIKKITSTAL
Protein kinase C delta type (Homo sapiens), sequence (Q05655 whole entry, looked up): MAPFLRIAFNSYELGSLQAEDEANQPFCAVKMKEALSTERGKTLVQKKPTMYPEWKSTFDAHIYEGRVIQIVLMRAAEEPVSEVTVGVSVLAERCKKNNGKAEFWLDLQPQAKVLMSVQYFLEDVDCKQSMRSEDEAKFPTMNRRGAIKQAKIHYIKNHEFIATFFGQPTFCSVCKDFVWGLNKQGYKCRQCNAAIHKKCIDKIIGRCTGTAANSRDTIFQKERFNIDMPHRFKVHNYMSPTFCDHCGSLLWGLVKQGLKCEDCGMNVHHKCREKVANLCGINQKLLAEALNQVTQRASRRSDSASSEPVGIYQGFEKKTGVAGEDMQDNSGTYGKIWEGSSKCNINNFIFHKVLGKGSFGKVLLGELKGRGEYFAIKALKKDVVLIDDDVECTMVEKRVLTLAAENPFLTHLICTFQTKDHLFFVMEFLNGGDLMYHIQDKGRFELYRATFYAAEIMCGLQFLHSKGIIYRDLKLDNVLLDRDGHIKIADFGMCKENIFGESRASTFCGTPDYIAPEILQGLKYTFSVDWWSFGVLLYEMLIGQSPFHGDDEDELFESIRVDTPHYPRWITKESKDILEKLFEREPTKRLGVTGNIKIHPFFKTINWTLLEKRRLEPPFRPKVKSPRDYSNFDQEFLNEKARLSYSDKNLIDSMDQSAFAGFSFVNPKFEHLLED
Ribosomal protein S6 kinase alpha-6 (Homo sapiens), sequence (Q9UK32 whole entry, the tested form may be a part): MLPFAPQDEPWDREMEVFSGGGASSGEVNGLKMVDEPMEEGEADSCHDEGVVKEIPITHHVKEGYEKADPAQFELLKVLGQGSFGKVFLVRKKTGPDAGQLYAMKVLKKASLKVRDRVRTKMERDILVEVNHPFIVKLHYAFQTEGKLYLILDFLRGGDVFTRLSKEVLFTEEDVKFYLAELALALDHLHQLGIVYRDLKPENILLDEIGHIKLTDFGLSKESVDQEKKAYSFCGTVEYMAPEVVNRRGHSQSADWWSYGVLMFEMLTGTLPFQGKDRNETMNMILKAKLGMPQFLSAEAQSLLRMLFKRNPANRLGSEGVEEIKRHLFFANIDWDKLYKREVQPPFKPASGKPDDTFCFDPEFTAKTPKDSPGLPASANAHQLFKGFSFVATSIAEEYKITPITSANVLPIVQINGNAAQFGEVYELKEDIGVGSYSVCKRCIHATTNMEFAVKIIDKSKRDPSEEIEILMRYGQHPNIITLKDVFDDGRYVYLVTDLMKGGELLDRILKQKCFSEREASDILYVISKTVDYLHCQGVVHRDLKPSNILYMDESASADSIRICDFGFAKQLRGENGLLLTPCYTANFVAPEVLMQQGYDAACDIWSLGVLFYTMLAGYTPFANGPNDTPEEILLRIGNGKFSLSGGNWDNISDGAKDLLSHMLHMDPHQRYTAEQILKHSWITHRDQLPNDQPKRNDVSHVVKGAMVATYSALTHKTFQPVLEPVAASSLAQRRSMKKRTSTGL

SMILES: CNc1cc(Oc2cc(C(=O)Nc3cc(N4CCN(C)CC4)cc(C(F)(F)F)c3)ccc2C)ncn1
- inhibition [1]: 15.3%
- inhibition at 1 µM [2]: 0.9%
- inhibition [3]: -4.1%
- inhibition at 1 µM [4]: -57.8%
- inhibition [5]: -0.4%
- inhibition [6]: 3.1%

SMILES: CCN1CCN(Cc2ccc(NC(=O)c3ccc(C)c(Oc4ccnc5[nH]ccc45)c3)cc2C(F)(F)F)CC1
- inhibition [7]: inactive
- inhibition [8]: 44.3%
- inhibition [9]: 20%
- inhibition [10]: inactive
- inhibition [11]: inactive
- inhibition [12]: -2.3%

SMILES: CCN1CCN(Cc2ccc(NC(=O)c3ccc(C)c(/C=C/c4cnc5[nH]ccc5c4OC)c3)cc2C(F)(F)F)CC1
- residual activity [13]: 21%
- residual activity [14]: 0.05%
- residual activity [15]: 60%
- inhibition [16]: -9.4%
